For orientation: Ki means the dissociation constant of the complex between target and ligand, obtained from inhibition or displacement.

The values below come from US5559232A, “Carboxamides” (Hoffmann-La Roche Inc., priority 1993, dated 1996).

One assay concerns the target trypsin. Nature of the assay: inhibition of the amidolytic activity of trypsin (chromogenic substrate S-2251). Format: biochemical. Conditions: substrate S-2251, 200 and 750 μM, otherwise analogous to thrombin.
The next assay deals with human thrombin (Homo sapiens, UniProt P00734). Nature of the assay: inhibition of the amidolytic activity of thrombin (chromogenic substrate S-2238). Format: biochemical. As to conditions: for Ki: human thrombin 0.5 nM, substrate S-2238, pH 7.8, room temperature; for q (ratio of the inhibition of trypsin to the inhibition of thrombin): specificity: Ki trypsin / Ki thrombin. On the procedure: A differential inhibition of thrombin and other serine proteases by the above compounds is desirable in order to obtain compounds having as high a specificity as possible and at the same time to avoid possible side-effects.
Specific chromogenic peptide substrates can be used to determine the inhibition of the catalytic activity of the above proteases. The inhibition of the amidolytic activity of thrombin and trypsin by the above guanidines was determined as described hereinafter.
The measurements were carried out on microtitre plates at room temperature. For this, in each well of the plate 150 μl of buffer (50 mM Tris, 100 mM NaCl, 0.1% polyethylene glycol; pH 7.8) were mixed with 50 μl of the inhibitor dissolved in DMSO and diluted in the buffer, and 25 μl of human thrombin (0.5 nM final conc.) were added. After incubation for 10 minutes the reaction was started by the addition of chromogenic substrate S-2238 (H-D-Phe-Pip-Arg-paranitroaniline from Kabivitrum; 10 or 50 μm final conc.) and the hydrolysis of the substrate was followed spectrophotometrically on a kinetic microtiter plate reader for 5 minutes. After graphical presentation of the inhibition curves the Ki values were determined according to the method described in Blochem. J. 55, 1955, 170-171.

Molecule `N=C(N)N1CCC[C@@H](CNC(=O)C[C@H](NC(=O)OCc2ccccc2)C(=O)N(CCC(=O)O)C2CC2)C1` [Example 4a, 3-[[(S)-3-[(S)-1-(Amino-imino-methyl)-piperidin-3-ylmethylcarbamoyl]-2-benzyloxycarbonylamino-propionyl]-cyclopropylamino]-propionic acid] registered a Ki at trypsin of 83 µM. Further, at human thrombin, the Ki was 0.079 µM and the “q (ratio of the inhibition of trypsin to the inhibition of thrombin)” value came out at 1051.

On to `CCCCN(CC(=O)O)C(=O)[C@H](CC(=O)NC[C@@H]1CCCN(C(=N)N)C1)NC(=O)OCc1ccccc1` [Example 4b, [[(S)-3-[(S)-1-(amino-imino-methyl)-piperidin-3-ylmethylcarbamoyl]-2-benzyloxycarbonylamino-propionyl]-butyl-amino]-acetic acid], for which the Ki at trypsin amounted to 28 µM. In addition, on human thrombin, the inhibition constant (Ki) came to 0.064 µM and the “q (ratio of the inhibition of trypsin to the inhibition of thrombin)” value is 438.

For the molecule `CCOC(=O)CN(C(=O)[C@H](CC(=O)NC[C@@H]1CCCN(C(=N)N)C1)NC(=O)c1ccccc1)C1CC1` [Example 13d, ethyl [[(S)-3-[(S)-1-(amino-imino-methyl)-piperidin-3-ylmethylcarbamoyl]-2-benzoylamino-propionyl]-cyclopropyl-amino]-acetate], the affinity at trypsin corresponds to a Ki of 23.5 µM. Besides, at human thrombin, the Ki came to 4.7 µM and the “q (ratio of the inhibition of trypsin to the inhibition of thrombin)” value is 5.

For `N=C(N)N1CCC[C@@H](CNC(=O)C[C@H](NC(=O)c2ccccc2)C(=O)N(CC(=O)O)C2CC2)C1` [Example 14d, [[(S)-3-[(S)-1-(amino-imino-methyl)-piperidin-3-ylmethylcarbarnoyl]-2-benzoylamino-propionyl]-cyclopropyl-amino]-acetic acid], the Ki at trypsin was found to be 83 µM; at human thrombin, 0.25 µM. Moreover, the “q (ratio of the inhibition of trypsin to the inhibition of thrombin)” value at human thrombin is recorded as 332.

`N=C(N)N1CCC[C@@H](CNC(=O)C[C@H](NC(=O)CCc2c[nH]c3ccccc23)C(=O)N(CCNC(=O)c2cnccn2)C2CC2)C1` [Example 21a, (S)-N4-[(S)-1-(amino-imino-methyl)-piperidin-3-ylmethyl]-N1-cyclopropyl-2-(3-indol-3-yl-propionylamino)-N1-(2-pyrazin-2-ylcarbonylamino-ethyl)-succinamide]: at trypsin, affinity was put at a Ki of 8.9 µM. Also, on human thrombin, the Ki was found to be 0.0023 µM and the “q (ratio of the inhibition of trypsin to the inhibition of thrombin)” value was found to be 3870.

Consider `NC(=NO)N1CCC[C@@H](CNC(=O)C[C@H](NS(=O)(=O)c2ccc3ccccc3c2)C(=O)N(CCNC(=O)c2cnccn2)C2CC2)C1` [Example 22, (S)-N4-[(S)-1-(amino-hydroxyimino-methyl)-piperidin-3-ylmethyl]-N1-cyclopropyl-2-(naphthalen-2-ylsulphonylamino)-N1-[2-(pyrazin-2-ylcarbonylamino)-ethyl]-succinamide], for which the affinity at trypsin corresponds to a Ki of 16.5 µM. Besides, at human thrombin, affinity was put at a Ki of 0.0015 µM and the “q (ratio of the inhibition of trypsin to the inhibition of thrombin)” value is on record as 11000.

Molecule `CCOC(=O)CN(C(=O)[C@H](CC(=O)NC[C@@H]1CCCN(C(=N)N)C1)NC(=O)Cc1ccccc1)C1CC1` [Example 13e] gave a Ki at trypsin of 91 µM. Moreover, on human thrombin, the Ki was 2.6 µM and the “q (ratio of the inhibition of trypsin to the inhibition of thrombin)” value is reported as 35.

Turning to `CCCCN(CC(=O)OCC)C(=O)[C@H](CC(=O)NC[C@@H]1CCCN(C(=N)N)C1)NC(=O)OCc1ccccc1` [Example 2b, ethyl [[(S)-3-[(S)-1-(amino-imino-methyl)-piperidin-3-ylmethylcarbamoyl]-2-benzyloxycarbonylamino-propionyl]-butyl-amino]acetate], the affinity on trypsin, expressed as Ki, was 56 µM. Moreover, at human thrombin, the inhibitory constant (Ki) turned out to be 0.61 µM and the “q (ratio of the inhibition of trypsin to the inhibition of thrombin)” value turned out to be 92.

Turning to `N=C(N)N1CCC[C@@H](CNC(=O)C[C@H](NC(=O)OCC2CCCCC2)C(=O)N(CC(=O)O)C2CC2)C1` [Example 8, [[(S)-3-[(S)-1-(Amino-imino-methyl)-piperidin-3-ylmethylcarbamoyl]-2-cyclohexylmethoxycarbonylamino-propionyl]cyclopropyl-amino]-acetic acid], the Ki stood at 27 µM at trypsin and 0.017 µM at human thrombin. Besides, at human thrombin, the “q (ratio of the inhibition of trypsin to the inhibition of thrombin)” value was determined as 1588.

`CCOC(=O)CN(C(=O)[C@H](CC(=O)NC[C@@H]1CCCN(C(=N)N)C1)NC(=O)NCc1ccco1)C1CC1` [Example 9b1, Ethyl [[(S)-3-[(S)-1-(amino-imino-methyl)-piperidin-3-ylmethylcarbamoyl]-2-(3-furan-2-ylmethyl-ureido)-propionyl]-cyclopropyl-amino]-acetate]: the affinity on trypsin corresponds to a Ki of 80 µM. Besides, on human thrombin, the inhibitory constant (Ki) was 1.5 µM and the “q (ratio of the inhibition of trypsin to the inhibition of thrombin)” value was found to be 53.

In the case of `CCCCC(=O)N[C@@H](CC(=O)NC[C@@H]1CCCN(C(=N)N)C1)C(=O)N(CC(=O)OCC)C1CC1` [Example 13a, Ethyl [[(S)-3-[(S)-1-(amino-imino-methyl)-piperidin-3-ylmethylcarbamoyl]-2-pentanoylamino-propionyl]-cyclopropyl-amino]acetate], the affinity at trypsin, expressed as Ki, was 70 µM. Further, at human thrombin, the inhibitory constant (Ki) was 2.7 µM and the “q (ratio of the inhibition of trypsin to the inhibition of thrombin)” value was determined as 26.

Turning to `CCCCN(CCC(=O)O)C(=O)[C@H](CC(=O)NC[C@@H]1CCCN(C(=N)N)C1)NC(=O)OCc1ccccc1` [Example 4c, 3-[[(S)-3-[(S)-1-(amino-imino-methyl)-piperidin-3-ylmethylcarbamoyl]-2-benzyloxycarbonylamino-propionyl]-butyl-amino]propionic acid], the Ki came to 100 µM at trypsin and 0.3 µM at human thrombin. Moreover, the “q (ratio of the inhibition of trypsin to the inhibition of thrombin)” value at human thrombin came out at 333.

As for `CCCCN(CCC(=O)O)C(=O)[C@H](CC(=O)NCC1CN(C(=N)N)CCO1)NC(=O)OCc1ccccc1` (stereo partly drawn) [Example 6d, 3-[[(S)-3-[4-(amino-imino-methyl)-morpholin-2-ylmethylcarbamoyl]-2-benzyloxycarbonylamino-propionyl]-butyl-amino]propionic acid], the inhibitory constant (Ki) on trypsin stood at 85 µM. Also, on human thrombin, the Ki stood at 0.94 µM and the “q (ratio of the inhibition of trypsin to the inhibition of thrombin)” value is recorded as 90.

On trypsin, `CCCCN(CCC(=O)OCC)C(=O)[C@H](CC(=O)NC[C@@H]1CCCN(C(=N)N)C1)NC(=O)NCc1ccco1` [Example 10, Ethyl 3-[[(S)-3-[(S)-1-(amino-imino-methyl)-piperidin-3-ylmethylcarbamoyl]-2-(3-furan-2-ylmethyl-ureido)-propionyl]-butylamino]-propionate] returned a Ki of 51 µM. For the same molecule, on human thrombin, affinity was put at a Ki of 0.25 µM and the “q (ratio of the inhibition of trypsin to the inhibition of thrombin)” value amounted to 204.

Turning to `CCCCN1CC(=O)N[C@@H](CC(=O)NC[C@@H]2CCCN(C(=N)N)C2)C1=O` [Example 18, N-[(S)-1-(amino-imino-methyl)-piperidin-3-ylmethyl]-2-[(S)-2,6-dioxo-4-butyl-piperazin-2-yl]-acetamide], the inhibitory constant (Ki) on trypsin is 590 µM; at human thrombin, 2.2 µM. Besides, at human thrombin, the “q (ratio of the inhibition of trypsin to the inhibition of thrombin)” value came to 268.

The molecule `N=C(N)N1CCC[C@@H](CNC(=O)C[C@H](NS(=O)(=O)N2CCOCC2)C(=O)N(CCNC(=O)c2ccc(=O)[nH]n2)C2CC2)C1` [Example 25] had a Ki on trypsin of 7.2 µM. Also, on human thrombin, the Ki worked out at 0.0013 µM and the “q (ratio of the inhibition of trypsin to the inhibition of thrombin)” value amounted to 5538.

For the molecule `N=C(N)N1CCOC(CNC(=O)C[C@H](NC(=O)OCc2ccccc2)C(=O)N(CCC(=O)O)C2CC2)C1` (stereo partly drawn) [Example 6c, 3-[[(S)-3-[4-(amino-imino-methyl)-morpholin-2-ylmethylcarbamoyl]-2-benzyloxycarbonylamino-propionyl]-cyclopropyl-amino]propionic acid], the inhibition constant Ki was 92 µM on trypsin and 0.33 µM on human thrombin. Also, the “q (ratio of the inhibition of trypsin to the inhibition of thrombin)” value at human thrombin stood at 279.

Regarding `CCCCS(=O)(=O)N1CCN(CC(=O)O)C(=O)C1CC(=O)NC[C@@H]1CCCN(C(=N)N)C1` (stereo partly drawn) [Example 17, [3-[(S)-1-(amino-imino-methyl)-piperidin-3-ylmethylcarbamoylmethyl]-4-butylsulphonyl-2-oxo-piperazin-1yl]acetic acid], the results for the inhibitory constant (Ki) on trypsin and on human thrombin were 96 µM and 1.3 µM, respectively. Moreover, the “q (ratio of the inhibition of trypsin to the inhibition of thrombin)” value at human thrombin was 74.

As for `N=C(N)N1CCC[C@@H](CNC(=O)C[C@H](NC(=O)c2cc(Cl)ccn2)C(=O)N(CC(=O)O)C2CC2)C1` [Example 14c, [[(S)-3-[(S)-1-(amino-imino-methyl)-piperidin-3-ylmethylcarbarnoyl]-2-(4-chloro-pyridin-2-ylcarbonylamino)-propionyl]cyclopropyl-amino]-acetic acid], the Ki at trypsin came to 50 µM; on human thrombin, 0.057 µM. Besides, the “q (ratio of the inhibition of trypsin to the inhibition of thrombin)” value at human thrombin was found to be 877.

As for `CCCCN(CC(=O)OCC)C(=O)[C@H](CC(=O)NCC1CN(C(=N)N)CCO1)NC(=O)OCc1ccccc1` (stereo partly drawn) [Example 5b, ethyl [[(S)-3-[4-(amino-imino-methyl)-morpholin-2-ylmethylcarbamoyl]-2-benzyloxycarbonylaminopropionyl]-butyl-amino]-acetate], on trypsin, the affinity, expressed as Ki, was 150 µM. Also, on human thrombin, the Ki amounted to 0.03 µM and the “q (ratio of the inhibition of trypsin to the inhibition of thrombin)” value was found to be 5000.
